Experimental data reported in PubChem BioAssay AID1259407 (Chemical Carcinogenesis Research Information System (CCRIS), 2018).
Calls of active or inactive are those of the source. How the calls were made is not given here.

Tested on: CCRIS mutagenicity, Ames/micronucleus/aberration tests
Test: CCRIS mutagenicity studies
[1] = Test System: AMES SALMONELLA TYPHIMURIUM, Strain/Indicator: TA98, Metabolic Activation: HAMSTER, LIVER, S-9, AROCLOR 1254 (30%), Method: PREINCUBATION
[2] = Test System: AMES SALMONELLA TYPHIMURIUM, Strain/Indicator: TA98, Metabolic Activation: NONE, Method: PREINCUBATION
[3] = Test System: AMES SALMONELLA TYPHIMURIUM, Strain/Indicator: TA98, Metabolic Activation: RAT, LIVER, S-9, AROCLOR 1254 (30%), Method: PREINCUBATION
[4] = Test System: AMES SALMONELLA TYPHIMURIUM, Strain/Indicator: TA100, Metabolic Activation: HAMSTER, LIVER, S-9, AROCLOR 1254 (30%), Method: PREINCUBATION
[5] = Test System: AMES SALMONELLA TYPHIMURIUM, Strain/Indicator: TA100, Metabolic Activation: NONE, Method: PREINCUBATION
[6] = Test System: AMES SALMONELLA TYPHIMURIUM, Strain/Indicator: TA100, Metabolic Activation: RAT, LIVER, S-9, AROCLOR 1254 (30%), Method: PREINCUBATION
[7] = Test System: AMES SALMONELLA TYPHIMURIUM, Strain/Indicator: TA1535, Metabolic Activation: HAMSTER, LIVER, S-9, AROCLOR 1254 (30%), Method: PREINCUBATION
[8] = Test System: AMES SALMONELLA TYPHIMURIUM, Strain/Indicator: TA1535, Metabolic Activation: NONE, Method: PREINCUBATION
[9] = Test System: AMES SALMONELLA TYPHIMURIUM, Strain/Indicator: TA1535, Metabolic Activation: RAT, LIVER, S-9, AROCLOR 1254 (30%), Method: PREINCUBATION
[10] = Test System: AMES SALMONELLA TYPHIMURIUM, Strain/Indicator: TA1537, Metabolic Activation: NONE, Method: PREINCUBATION
[11] = Test System: AMES SALMONELLA TYPHIMURIUM, Strain/Indicator: TA98, Metabolic Activation: HAMSTER, LIVER, S-9, AROCLOR 1254 (10%), Method: PREINCUBATION
[12] = Test System: AMES SALMONELLA TYPHIMURIUM, Strain/Indicator: TA98, Metabolic Activation: RAT, LIVER, S-9, AROCLOR 1254 (10%), Method: PREINCUBATION
[13] = Test System: AMES SALMONELLA TYPHIMURIUM, Strain/Indicator: TA100, Metabolic Activation: HAMSTER, LIVER, S-9, AROCLOR 1254 (10%), Method: PREINCUBATION
[14] = Test System: AMES SALMONELLA TYPHIMURIUM, Strain/Indicator: TA100, Metabolic Activation: RAT, LIVER, S-9, AROCLOR 1254 (10%), Method: PREINCUBATION
[15] = Test System: AMES SALMONELLA TYPHIMURIUM, Strain/Indicator: TA1535, Metabolic Activation: HAMSTER, LIVER, S-9, AROCLOR 1254 (10%), Method: PREINCUBATION
[16] = Test System: AMES SALMONELLA TYPHIMURIUM, Strain/Indicator: TA1535, Metabolic Activation: RAT, LIVER, S-9, AROCLOR 1254 (10%), Method: PREINCUBATION

Row | Structure (SMILES) | mutagenic call [1] | mutagenic call [2] | mutagenic call [3] | mutagenic call [4] | mutagenic call [5] | mutagenic call [6] | mutagenic call [7] | mutagenic call [8] | mutagenic call [9] | mutagenic call [10] | mutagenic call [11] | mutagenic call [12] | mutagenic call [13] | mutagenic call [14] | mutagenic call [15] | mutagenic call [16] | other results
1 | CC(C)(C)c1ccc(OCC2CO2)cc1 (centres undefined) | inactive; negative | inactive; negative | inactive; negative | inactive; negative | active; positive | inactive; negative | inactive; negative | inactive; negative | inactive; negative | inactive; negative | – | – | – | – | – | – | mutagenic call (Test System: AMES SALMONELLA TYPHIMURIUM, Strain/Indicator: TA1537, Metabolic Activation: HAMSTER, LIVER, S-9, AROCLOR 1254 (30%), Method: PREINCUBATION): inactive; negative; mutagenic call (Test System: AMES SALMONELLA TYPHIMURIUM, Strain/Indicator: TA1537, Metabolic Activation: RAT, LIVER, S-9, AROCLOR 1254 (30%), Method: PREINCUBATION): inactive; negative
2 | Cc1ccc(S(=O)(=O)O)cc1C | – | inactive; negative | – | – | inactive; negative | – | – | inactive; negative | – | inactive; negative | inactive; negative | inactive; negative | inactive; negative | inactive; negative | inactive; negative | inactive; negative | mutagenic call (Test System: AMES SALMONELLA TYPHIMURIUM, Strain/Indicator: TA98, Metabolic Activation: HAMSTER LIVER S-9, AROCLOR 1254 (10%), Method: PREINCUBATION): inactive; negative; mutagenic call (Test System: AMES SALMONELLA TYPHIMURIUM, Strain/Indicator: TA98, Metabolic Activation: RAT LIVER S-9, AROCLOR 1254 (10%), Method: PREINCUBATION): inactive; negative; mutagenic call (Test System: AMES SALMONELLA TYPHIMURIUM, Strain/Indicator: TA100, Metabolic Activation: HAMSTER LIVER S-9, AROCLOR 1254 (10%), Method: PREINCUBATION): inactive; negative; mutagenic call (Test System: AMES SALMONELLA TYPHIMURIUM, Strain/Indicator: TA100, Metabolic Activation: RAT LIVER S-9, AROCLOR 1254 (10%), Method: PREINCUBATION): inactive; negative; mutagenic call (Test System: AMES SALMONELLA TYPHIMURIUM, Strain/Indicator: TA1535, Metabolic Activation: HAMSTER LIVER S-9, AROCLOR 1254 (10%), Method: PREINCUBATION): inactive; negative; mutagenic call (Test System: AMES SALMONELLA TYPHIMURIUM, Strain/Indicator: TA1535, Metabolic Activation: RAT LIVER S-9, AROCLOR 1254 (10%), Method: PREINCUBATION): inactive; negative; mutagenic call (Test System: AMES SALMONELLA TYPHIMURIUM, Strain/Indicator: TA1537, Metabolic Activation: HAMSTER LIVER S-9, AROCLOR 1254 (10%), Method: PREINCUBATION): inactive; negative; mutagenic call (Test System: AMES SALMONELLA TYPHIMURIUM, Strain/Indicator: TA1537, Metabolic Activation: HAMSTER, LIVER, S-9, AROCLOR 1254 (10%), Method: PREINCUBATION): inactive; negative; mutagenic call (Test System: AMES SALMONELLA TYPHIMURIUM, Strain/Indicator: TA1537, Metabolic Activation: RAT LIVER S-9, AROCLOR 1254 (10%), Method: PREINCUBATION): inactive; negative; mutagenic call (Test System: AMES SALMONELLA TYPHIMURIUM, Strain/Indicator: TA1537, Metabolic Activation: RAT, LIVER, S-9, AROCLOR 1254 (10%), Method: PREINCUBATION): inactive; negative; mutagenic call (Test System: MOUSE LYMPHOMA, Strain/Indicator: L5178Y (TK+/TK-), Metabolic Activation: NONE, Method: SUSPENSION/PLATE): inactive; negative
3 | CCCCCCCCCCCC(=O)[O][Sn]([CH2]CCC)([CH2]CCC)[O]C(=O)CCCCCCCCCCC | inactive; negative | inactive; negative | inactive; negative | inactive; negative | inactive; negative | inactive; negative | inactive; negative | inactive; negative | inactive; negative | – | inactive; negative | inactive; negative | inactive; negative | inactive; negative | inactive; negative | inactive; negative | mutagenic call (Test System: AMES SALMONELLA TYPHIMURIUM, Strain/Indicator: TA97, Metabolic Activation: HAMSTER, LIVER, S-9, AROCLOR 1254 (10%), Method: PREINCUBATION): inactive; negative; mutagenic call (Test System: AMES SALMONELLA TYPHIMURIUM, Strain/Indicator: TA97, Metabolic Activation: HAMSTER, LIVER, S-9, AROCLOR 1254 (30%), Method: PREINCUBATION): inactive; negative; mutagenic call (Test System: AMES SALMONELLA TYPHIMURIUM, Strain/Indicator: TA97, Metabolic Activation: NONE, Method: PREINCUBATION): inactive; negative; mutagenic call (Test System: AMES SALMONELLA TYPHIMURIUM, Strain/Indicator: TA97, Metabolic Activation: RAT, LIVER, S-9, AROCLOR 1254 (10%), Method: PREINCUBATION): inactive; negative; mutagenic call (Test System: AMES SALMONELLA TYPHIMURIUM, Strain/Indicator: TA97, Metabolic Activation: RAT, LIVER, S-9, AROCLOR 1254 (30%), Method: PREINCUBATION): inactive; negative
4 | [N-]=[N+]=N[C@H](c1ccccc1)[C@@H](O)CO | – | – | – | – | – | – | – | – | – | – | – | – | – | – | – | – | mutagenic call (Test System: AMES SALMONELLA TYPHIMURIUM, Strain/Indicator: TA100, Metabolic Activation: RAT, LIVER, S-9, PCB, Method: PREINCUBATION): active; positive
